Data as given in ChEMBL document CHEMBL1201862, “PubChem BioAssay data set” (2004).
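Test compounds were applied to cells in 96-well plates for 48 hours at 5 doses. Here, GI50 denotes the concentration required for 50% inhibition of growth.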 Active and inactive are the calls of the source. Rule as the data show it: active = GI50 up to about 1.1 µM and inactive = higher.

Tests used:
Test in all cases: NCI anticancer screen, dose series, 48 h
[1] = test system: SK-MEL-5
[2] = test system: NCI-H460
[3] = test system: HOP-92
[4] = test system: UO-31
[5] = test system: SNB-19
[6] = test system: HT-29
[7] = test system: NCI-H23
[8] = test system: K562
[9] = test system: IGROV-1
[10] = test system: MDA-MB-435
[11] = test system: Hs-578T
[12] = test system: RPMI-8226
[13] = test system: HCT-116
[14] = test system: OVCAR-8
[15] = test system: OVCAR-5
[16] = test system: RXF 393
[17] = test system: PC-3
[18] = test system: HL-60

Measured: GI50

C=C1C(=O)O[C@H]2C1C[C@@H](O)[C@@]1(C)OC1CC[C@@]1(C)O[C@H]21 (stereo not given in full)
inactive: [1] 16.1 µM | [2] 57.9 µM | [3] 17.2 µM | [4] 17 µM | [5] > 100 µM | [6] 32.8 µM | [7] 17 µM | [8] 9.33 µM | [9] > 10 µM | [10] 21 µM | [11] 28.6 µM | [12] 8.95 µM | [13] 17.7 µM | [14] 34.7 µM | [15] 28.7 µM | [16] 17.9 µM | [17] 27.2 µM

CN1CC(C(=O)C2C(=O)c3ccccc3C2=O)C(=O)C(=O)C(C(=O)C2C(=O)c3ccccc3C2=O)C1 (stereo not given)
inactive: [2] > 100 µM | [3] 85.1 µM | [4] > 100 µM | [5] > 100 µM | [6] > 100 µM | [7] > 100 µM | [18] > 100 µM | [8] > 100 µM | [9] > 100 µM | [13] > 100 µM | [14] 77.6 µM | [15] > 100 µM

Nc1nc(=O)c(/N=N/c2ccccc2)c(C(=O)O)[nH]1
inactive: [1] 93.8 µM | [2] 45.7 µM | [3] > 100 µM | [4] > 100 µM | [5] > 100 µM | [6] 45.5 µM | [7] > 100 µM | [18] 37.9 µM | [8] 54.6 µM | [9] 85.7 µM | [10] > 100 µM | [11] > 100 µM | [12] 63.8 µM | [13] 61.8 µM | [14] > 100 µM | [15] > 100 µM | [16] > 100 µM | [17] > 100 µM

Nc1nc(=O)c(/N=N/c2ccccc2)c(N)[nH]1
inactive: [1] 51.8 µM | [2] 24.6 µM | [3] 22.5 µM | [4] 42.4 µM | [5] > 100 µM | [6] 28.4 µM | [7] 22.8 µM | [18] 28.1 µM | [8] 11 µM | [9] 29.6 µM | [12] > 100 µM | [13] 16.1 µM | [14] 43.5 µM | [15] 41.3 µM

Nc1nc(SCCC/C=C/B(O)O)nc2c1ncn2C1OC(COP(=O)(O)O)C(O)C1O (stereo not given)
inactive: [1] > 203 µM | [2] > 203 µM | [3] > 203 µM | [4] > 203 µM | [5] > 203 µM | [6] > 203 µM | [7] > 203 µM | [18] > 203 µM | [8] > 203 µM | [9] > 203 µM | [12] > 203 µM | [13] > 203 µM | [14] > 203 µM | [15] > 203 µM
